From patent US20180320177A1, “COMPOSITIONS AND METHODS FOR THE TREATMENT OF LIVER FIBROSIS” (UNIVERSITY OF CONNECTICUT, priority 2015, published 2018)

Legend:
[1] = tested on: pAKT and pERK1/2 activation; experiment: pAKT and pERK1/2 activation and HMGB2 protein in primary stellate cells; assay type: cell-based, mouse; details: stellate cells (FIG. 6E)
Method: (§1) Western Blotting: Total protein lysates were prepared from livers and cells in lysis buffer containing 50 mM Tris, pH 8.0, 1% Nonidet™ P-40, 150 mM NaCl, 0.5% sodium deoxycholate, 0.1% SDS with protease inhibitors (Thermo Fisher Scientific) and subjected to immunoblotting. Nuclear and cytoplasmic subcellular fractions were prepared using NE-PER nuclear and cytoplasmic extraction reagents (Pierce) according to the manufacturer's instructions. The blot was incubated with a primary antibody, followed by a secondary antibody conjugated to horseradish peroxidase. ECL kit (Pierce) was used to detect the reactivity. The following antibodies were obtained from Cell Signaling Technology: HMGB2, HMGB1, AKT, p-AKT, mTOR, p-mTOR, ERK1/2, pERK1/2, Raptor, Rictor, p53, p21, p-Bad, Smad4, p-Smad2/3, Lamin A/C, a-SMA, MMP2, MMP9, TIMP1, RhoA, Rho-GTP, Cdc42, Rac1/2/3. Anti-HA antibody and anti-beta actin antibody were purchased from Sigma and Santa Cruz Biotechnology, respectively.
Primary Mouse Hepatic Stellate Cells (HSCs) isolation and in vitro activation: Primary mouse HSCs were isolated from 8 to 12 weeks old wild type or Hmgb2^−/− mice, as described in the art with modifications. Briefly, mice were anesthetized with ketamine/xylazine mixture. The liver was perfused with Hank's balanced salt solution (HBSS) supplemented with 0.5 mM EGTA through the cannulated portal vein, followed by perfusion with HBSS supplemented with 0.5 mg/ml pronase (Sigma) and HBSS with 0.14 mg/ml collagenase (Sigma). The liver was dissected out from the mouse and dissociated cells were dispersed gently in HBSS. Primary HSC was isolated by three-layer discontinuous density gradient centrifugation with 25% and 50% percoll (Sigma) and plated on non-coated culture dishes in DMEM supplemented with 10% FBS, 100 IU/ml penicillin, and 100 μg/ml streptomycin. For culture-activated HSC studies, the medium of primary HSCs was replaced every day up to 7 days. For PDGF treatment, primary HSC cells were serum starved for 24 hr and then treated with PDFG for 3 or 5 days. […]

[2] = tested on: Smad signaling; experiment: Smad signaling in LX2 cells (Western blot); assay type: cell-based, human; details: LX2 cells (FIG. 5C)
Method: as §1
Cell Lines The LX-2 human stellate cell line was maintained in Dulbecco's Modified Eagle's Medium (DMEM) supplemented with 2% fetal bovine serum (FBS), 100 IU/ml penicillin, and 100 μg/ml streptomycin. Human hepatocellular carcinoma (HCC) MHCC97H cells were maintained in DMEM supplemented with 10% FBS, 100 IU/ml penicillin, and 100 μg/ml streptomycin, 1 mM HEPES, 1 mM sodium pyruvate, 2 mM L-glutamine. […]

[3] = biological target: T1, HMGB1 protein (Mus musculus, UniProt P63158); experiment: Western blot of HMGB1 protein in liver of CCl4-treated mice; assay type: in vivo; details: CCl4+ICM (FIG. 16)
T1 construct: Total protein lysates were prepared from livers and cells in lysis buffer; from tissue; host or cells: mouse liver
T1 sequence (P63158 1-215): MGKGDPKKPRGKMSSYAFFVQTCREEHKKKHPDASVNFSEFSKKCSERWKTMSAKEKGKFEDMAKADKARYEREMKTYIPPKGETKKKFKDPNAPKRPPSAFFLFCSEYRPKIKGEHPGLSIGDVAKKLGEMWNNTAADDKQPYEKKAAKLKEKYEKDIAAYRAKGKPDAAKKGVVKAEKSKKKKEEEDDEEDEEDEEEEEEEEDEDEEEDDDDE
Method: Animal Care: All animal care and experimental procedures were approved by the Institutional Animal Care and Use Committee at the University of Connecticut. Shp^−/− mice were described previously. Hmgb2^−/− mice were obtained from Dr. Stella Tsirka at Stony Brook University. C57BL/6J mice were purchased from Jackson Laboratory. All mice were maintained on a 12-h light/dark cycle with free access to food and water unless otherwise indicated. For CCl4 treatment, CCl4 (Sigma) was dissolved in corn oil and administered to mice at a dose of 850 μl/kg BW by intraperitoneal injection (IP) twice a week for 6 or 10 weeks with or without ICM. Age-matched control mice were treated with a corn oil vehicle. For CCl4+ICM treatment, mice were treated with CCl4 for 2 weeks and then ICM (Department of Pharmaceutical Sciences at UConn) was dissolved in PEG (Sigma) and treated with mice (10 mg/kg) every day for 4 or 8 weeks in combination with CCl4. To induce overexpression of HMGB2 in liver, AAV8-Hmgb2 or a control AAV8-GFP was given to mice by tail vein injection at a dose of 5×10^10 GC. To knockdown HMGB2 in mouse livers, AAV-shHmgb2 or a control AAV-shGFP was delivered to mice at a dose of 2×10^10 GC by tail vein injection. One week later, mice injected with AAVs were treated with CCl4 or CCl4 +ICM as described above and sacrificed. […]

HMGB1 protein [3]: less effect on HMGB1 protein
SMILES: CC1(C)Oc2cc(O)ccc2C2C1=CCn1c(=O)n(-c3ccccc3)c(=O)n12 (centres unmarked) [ICM, inflachromene]
HMGB2 protein [1]: reduces
pAKR activation [1]: reduces
pERk1/2 activation [1]: reduces
Smad signaling [2]: decreases Smad signaling
